In patent publication US20240206469A1, “PHOSPHORUS USE EFFICIENCY ENHANCERS AS PLANT GROWTH PROMOTORS” (EUROCHEM ANTWERPEN, priority 2021, published 2024):

What was measured:
Arabidopsis [1] = assay: Arabidopsis vertical plate growth assay (primary root length, shoot biomass); type: in vivo, Arabidopsis thaliana; conditions: 10 μM, low phosphate
Procedure: All Arabidopsis plant experiments were performed using the Arabidopsis thaliana Columbia-0 background. The Arabidopsis pSPX1::GUS line is described in the Plant Journal 2008, 54: 965-975. For rice, the cultivar Nipponbare was used. For maize, the cultivars DKC 2931 and B104 were used for regular pot experiments and sand-based pot experiments, respectively. For soybean, the cultivar Primus was used. […] The medium was solidified due to the addition of 0.6% Gelrite, unless stated otherwise. In case of vertical plates (root length and root hair measurements), the medium was supplied with 0.5% of sucrose and 1 μM (low phosphate, 1 μM KH2PO4, 9.9 mM KCl), 10 μM (low phosphate 10 μM KH2PO4, 9.9 mM KCl) or 1.25 mM KH2PO4 (high phosphate). Arabidopsis seeds were stratified for 2 days at 4° C. before germination. Seedlings were germinated in climate-controlled growth chambers at 22° C. under continuous light (100 μmol m^−2 s^−1). Husked rice seeds were germinated on wetted Whatman paper for 2 days at 37° C. and then transferred to Sterivent boxes or square Petri dishes with solid medium. Maize and soybean seeds were wetted 24 hours at room temperature prior to sowing in pots.
(§1) Arabidopsis primary root growth experiments were done on MS1/2 on vertical standing plates and roots were measured 11 days after germination. Roots were imaged using a flatbed scanner (EPSON Expression 11000XL) and root length was measured using ImageJ software. Arabidopsis shoot biomass was determined in 11 days after germination and growth on vertical standing plates with modMS. Arabidopsis leaf area was measured 21 days after germination on horizontal plates with modMS medium. Plates were scanned from the top using a flatbed scanner (EPSON Expression 11000XL) and the visible leaf area was measured using ImageJ software. Rice plate experiments used vertically standing Petri dishes containing MS1/2 medium (low phosphate—0.001 mM) solidified with 0.8% washed agar. Plant height was measured 11 days after germination. […] Plant height was measured 13 days after germination. […]

Rice [2] = assay: Rice box experiment; type: in vivo, rice cultivar Nipponbare; conditions: low phosphate 0.025 mM, 10 μM, 13 days after germination, control 1.1
Procedure: (§2) All Arabidopsis plant experiments were performed using the Arabidopsis thaliana Columbia-0 background. The Arabidopsis pSPX1::GUS line is described in the Plant Journal 2008, 54: 965-975. For rice, the cultivar Nipponbare was used. For maize, the cultivars DKC 2931 and B104 were used for regular pot experiments and sand-based pot experiments, respectively. For soybean, the cultivar Primus was used. […] The medium was solidified due to the addition of 0.6% Gelrite, unless stated otherwise. […]
as §1, with “Rice plate experiments used vertically standing Petri dishes containing MS1/2 medium (low phosphate—0.001 mM) solidified with 0.8% washed agar.” left out

Maize = Maize growth experiment in pots with mixture of unfertilized potting soil and sand (leaf 5); type: in vivo; conditions: maize, pots with unfertilized potting soil and sand, after 29 days; control 38.1
Procedure: For a subset of compounds, we performed a more extensive analysis on their root hair inducing effect in a dose-response experiment (Table 3). This confirms that the more simple structures 8.14 and 8.14.6 still retain the activity of compound 8. […] To validate this, we performed a maize growth experiment using compound 8 and the, based on the increase of total root hair length, stronger variant 8.14.6. The experiment was conducted in pots with a mixture of unfertilized potting soil and sand, and leaf 5 was measured after 29 days (Table 4).

Arabidopsis [3] = assay: Arabidopsis horizontal plate leaf area assay; type: in vivo, Arabidopsis thaliana; conditions: 21 days after germination
Procedure: as §2
as §1, with “Rice plate experiments used vertically standing Petri dishes containing MS1/2 medium (low phosphate—0.001 mM) solidified with 0.8% washed agar.” left out

Rice [4] = assay: Rice plate experiment; type: in vivo, rice cultivar Nipponbare; conditions: low phosphate 0.001 mM, 10 μM, 11 days after germination, control 14.4
Procedure: as §2
as §1, with “Rice plate experiments used vertically standing Petri dishes containing MS1/2 medium (low phosphate—0.001 mM) solidified with 0.8% washed agar.” left out

In the case of `CC1CN(CC(=O)c2c(N)n(C)c(=O)n(C)c2=O)c2ccccc2O1` (centres unmarked) [Compound 8, 6-amino-1,3-dimethyl-5-[2-(2-methyl-2,3-dihydro-1,4-benzoxazin-4-yl)acetyl]pyrimidine-2,4-dione], the “Primary root length versus control without compound” value (Arabidopsis [1]; 11-day-old Arabidopsis) is reported as “almost double the length of the control”, the Primary root length (Arabidopsis [1]; Arabidopsis vertical plate, 11 days after germination, control 1.8) is reported as 3.5 cm and the Shoot biomass (Arabidopsis [1]; Arabidopsis vertical plate, 11 days after germination, control 11) is reported as 21 mg. The Plant height (Rice [2]) was 3.1 cm, the “Leaf 5” value (Maize) was 39.4 cm and the Leaf area (Arabidopsis [3]; low phosphate, 10 μM, control 78) was 106 mm^2. For the same molecule, the “Leaf area in sub-optimal phosphate conditions” value (Arabidopsis [3]; sub-optimal phosphate, control 104) was 143 mm^2 and the Plant height (Rice [4]) was 16 cm.
